Assay results: the NIST ThermoML archive (doi:10.1016/j.fluid.2004.09.013)
± gives the expanded uncertainty stated by the source.

Settings: for mass density: Fluid (supercritical or subcritical phases), Vibrating tube method

Which mass density (458.25 K, 5017 kPa) does the source give for `C=C(C)C` [2-methylpropene] here?
The mass density was 125.47 ± 0.61 kg/m3.

What about the mass density (458.25 K, 9993 kPa) of the same molecule?
Its mass density is 351.66 ± 0.85 kg/m3.

What about the mass density (458.25 K, 14983 kPa) of the same molecule?
The mass density was 408.65 ± 0.92 kg/m3.

And the mass density (458.25 K, 19987 kPa)?
The mass density was 439.63 ± 1 kg/m3.

What about the mass density (458.25 K, 25004 kPa) of the same molecule?
Its mass density is 461.27 ± 1.1 kg/m3.

And the mass density (458.25 K, 29988 kPa)?
The mass density was 478.03 ± 1.2 kg/m3.

What about the mass density (458.25 K, 34987 kPa) of the same molecule?
Its mass density is 491.88 ± 1.3 kg/m3.

And the mass density (463.25 K, 5016 kPa)?
The mass density was 119.04 ± 0.59 kg/m3.

What about the mass density (463.25 K, 9981 kPa) of the same molecule?
The mass density was 338.41 ± 0.82 kg/m3.

And the mass density (463.25 K, 14994 kPa)?
Its mass density is 400.72 ± 0.91 kg/m3.

What about the mass density (463.25 K, 19983 kPa) of the same molecule?
The mass density was 433.24 ± 1 kg/m3.

What about the mass density (463.25 K, 25001 kPa) of the same molecule?
Its mass density is 455.8 ± 1.1 kg/m3.

What about the mass density (463.25 K, 29987 kPa) of the same molecule?
Its mass density is 473.13 ± 1.2 kg/m3.

What about the mass density (463.25 K, 34998 kPa) of the same molecule?
The mass density was 487.42 ± 1.3 kg/m3.

What about the mass density (463.25 K, 39991 kPa) of the same molecule?
Its mass density is 499.76 ± 1.4 kg/m3.

And the mass density (468.25 K, 5015 kPa)?
The mass density was 113.61 ± 0.57 kg/m3.

And the mass density (468.25 K, 9993 kPa)?
The mass density was 325.38 ± 0.8 kg/m3.

And the mass density (468.25 K, 14991 kPa)?
Its mass density is 392.57 ± 0.89 kg/m3.

What about the mass density (468.25 K, 19999 kPa) of the same molecule?
Its mass density is 426.94 ± 0.99 kg/m3.

What about the mass density (468.25 K, 24992 kPa) of the same molecule?
The mass density was 450.29 ± 1.1 kg/m3.

And the mass density (468.25 K, 29998 kPa)?
Its mass density is 468.26 ± 1.2 kg/m3.

And the mass density (468.25 K, 34985 kPa)?
Its mass density is 482.91 ± 1.3 kg/m3.

What about the mass density (473.25 K, 5018 kPa) of the same molecule?
Its mass density is 109.13 ± 0.55 kg/m3.

What about the mass density (473.25 K, 9986 kPa) of the same molecule?
Its mass density is 311.87 ± 0.77 kg/m3.

And the mass density (473.25 K, 14992 kPa)?
The mass density was 384.37 ± 0.88 kg/m3.

And the mass density (473.25 K, 20001 kPa)?
Its mass density is 420.52 ± 0.98 kg/m3.

What about the mass density (473.25 K, 24988 kPa) of the same molecule?
The mass density was 444.78 ± 1.1 kg/m3.

And the mass density (473.25 K, 29996 kPa)?
The mass density was 463.37 ± 1.2 kg/m3.

What about the mass density (473.25 K, 34999 kPa) of the same molecule?
Its mass density is 478.46 ± 1.2 kg/m3.

What about the mass density (478.25 K, 5019 kPa) of the same molecule?
The mass density was 105.12 ± 0.52 kg/m3.

And the mass density (478.25 K, 9988 kPa)?
Its mass density is 298.62 ± 0.74 kg/m3.

What about the mass density (478.25 K, 14996 kPa) of the same molecule?
Its mass density is 376.12 ± 0.86 kg/m3.

And the mass density (478.25 K, 19999 kPa)?
Its mass density is 414.08 ± 0.97 kg/m3.

And the mass density (478.25 K, 24987 kPa)?
The mass density was 439.29 ± 1.1 kg/m3.

What about the mass density (478.25 K, 30005 kPa) of the same molecule?
Its mass density is 458.51 ± 1.1 kg/m3.

What about the mass density (478.25 K, 34997 kPa) of the same molecule?
Its mass density is 474 ± 1.2 kg/m3.

What about the mass density (483.25 K, 5019 kPa) of the same molecule?
The mass density was 101.57 ± 0.5 kg/m3.

What about the mass density (483.25 K, 9988 kPa) of the same molecule?
Its mass density is 285.6 ± 0.72 kg/m3.

And the mass density (483.25 K, 14984 kPa)?
The mass density was 367.69 ± 0.84 kg/m3.

And the mass density (483.25 K, 19990 kPa)?
Its mass density is 407.57 ± 0.95 kg/m3.

What about the mass density (483.25 K, 24996 kPa) of the same molecule?
The mass density was 433.89 ± 1.1 kg/m3.

What about the mass density (483.25 K, 29989 kPa) of the same molecule?
Its mass density is 453.63 ± 1.1 kg/m3.

And the mass density (483.25 K, 35003 kPa)?
Its mass density is 469.59 ± 1.2 kg/m3.

And the mass density (488.24 K, 4981 kPa)?
The mass density was 97.35 ± 0.48 kg/m3.

What about the mass density (488.24 K, 20000 kPa) of the same molecule?
The mass density was 401.24 ± 0.94 kg/m3.

What about the mass density (488.25 K, 9987 kPa) of the same molecule?
Its mass density is 273.08 ± 0.69 kg/m3.

And the mass density (488.25 K, 14983 kPa)?
Its mass density is 359.4 ± 0.83 kg/m3.

What about the mass density (488.25 K, 24997 kPa) of the same molecule?
Its mass density is 428.38 ± 1 kg/m3.

What about the mass density (488.25 K, 30002 kPa) of the same molecule?
Its mass density is 448.75 ± 1.1 kg/m3.

What about the mass density (488.25 K, 35005 kPa) of the same molecule?
The mass density was 465.15 ± 1.2 kg/m3.

What about the mass density (493.24 K, 4981 kPa) of the same molecule?
The mass density was 94.56 ± 0.46 kg/m3.

What about the mass density (493.24 K, 9988 kPa) of the same molecule?
The mass density was 261.21 ± 0.67 kg/m3.

And the mass density (493.24 K, 14986 kPa)?
The mass density was 351.12 ± 0.81 kg/m3.

What about the mass density (493.24 K, 19989 kPa) of the same molecule?
Its mass density is 394.84 ± 0.93 kg/m3.

And the mass density (493.24 K, 24992 kPa)?
The mass density was 422.89 ± 1 kg/m3.

What about the mass density (493.24 K, 30006 kPa) of the same molecule?
Its mass density is 443.91 ± 1.1 kg/m3.

And the mass density (493.24 K, 35002 kPa)?
The mass density was 460.71 ± 1.2 kg/m3.

What about the mass density (498.24 K, 5019 kPa) of the same molecule?
Its mass density is 92.91 ± 0.44 kg/m3.

What about the mass density (498.24 K, 19995 kPa) of the same molecule?
The mass density was 387.94 ± 0.91 kg/m3.

And the mass density (498.24 K, 30000 kPa)?
Its mass density is 439.07 ± 1.1 kg/m3.

And the mass density (498.25 K, 9984 kPa)?
The mass density was 249.88 ± 0.64 kg/m3.

And the mass density (498.25 K, 14995 kPa)?
Its mass density is 342.92 ± 0.8 kg/m3.

What about the mass density (498.25 K, 24992 kPa) of the same molecule?
The mass density was 417.4 ± 1 kg/m3.

And the mass density (498.25 K, 34999 kPa)?
Its mass density is 456.28 ± 1.2 kg/m3.

And the mass density (503.24 K, 4997 kPa)?
The mass density was 90.01 ± 0.42 kg/m3.

And the mass density (503.24 K, 9991 kPa)?
Its mass density is 239.72 ± 0.62 kg/m3.

What about the mass density (503.24 K, 14990 kPa) of the same molecule?
The mass density was 334.64 ± 0.78 kg/m3.

What about the mass density (503.24 K, 19984 kPa) of the same molecule?
Its mass density is 381.57 ± 0.9 kg/m3.

What about the mass density (503.24 K, 24988 kPa) of the same molecule?
Its mass density is 411.94 ± 1 kg/m3.

And the mass density (503.24 K, 30005 kPa)?
Its mass density is 434.24 ± 1.1 kg/m3.

What about the mass density (503.24 K, 34991 kPa) of the same molecule?
Its mass density is 451.87 ± 1.2 kg/m3.

And the mass density (503.24 K, 39995 kPa)?
Its mass density is 466.57 ± 1.3 kg/m3.

And the mass density (508.24 K, 5016 kPa)?
Its mass density is 88.26 ± 0.4 kg/m3.

What about the mass density (508.24 K, 9990 kPa) of the same molecule?
Its mass density is 230.13 ± 0.6 kg/m3.

What about the mass density (508.24 K, 14990 kPa) of the same molecule?
Its mass density is 326.56 ± 0.77 kg/m3.

What about the mass density (508.24 K, 19994 kPa) of the same molecule?
Its mass density is 375.29 ± 0.89 kg/m3.

What about the mass density (508.24 K, 24991 kPa) of the same molecule?
Its mass density is 406.52 ± 0.99 kg/m3.

What about the mass density (508.24 K, 30000 kPa) of the same molecule?
The mass density was 429.41 ± 1.1 kg/m3.

What about the mass density (508.24 K, 34996 kPa) of the same molecule?
The mass density was 447.5 ± 1.2 kg/m3.

And the mass density (508.24 K, 39992 kPa)?
Its mass density is 462.51 ± 1.3 kg/m3.

What about the mass density (513.24 K, 5016 kPa) of the same molecule?
Its mass density is 86.21 ± 0.39 kg/m3.

And the mass density (513.24 K, 9990 kPa)?
Its mass density is 221.29 ± 0.58 kg/m3.

What about the mass density (513.24 K, 14992 kPa) of the same molecule?
The mass density was 318.59 ± 0.75 kg/m3.

What about the mass density (513.24 K, 19996 kPa) of the same molecule?
Its mass density is 368.96 ± 0.88 kg/m3.

And the mass density (513.24 K, 24989 kPa)?
The mass density was 401.13 ± 0.98 kg/m3.

And the mass density (513.24 K, 30003 kPa)?
The mass density was 424.62 ± 1.1 kg/m3.

What about the mass density (513.24 K, 35008 kPa) of the same molecule?
The mass density was 443.17 ± 1.2 kg/m3.

What about the mass density (513.24 K, 39996 kPa) of the same molecule?
The mass density was 458.53 ± 1.3 kg/m3.

What about the mass density (518.23 K, 5016 kPa) of the same molecule?
Its mass density is 84.36 ± 0.37 kg/m3.

And the mass density (518.24 K, 9992 kPa)?
Its mass density is 213.29 ± 0.56 kg/m3.

What about the mass density (518.24 K, 14986 kPa) of the same molecule?
Its mass density is 310.73 ± 0.74 kg/m3.

What about the mass density (518.24 K, 19995 kPa) of the same molecule?
The mass density was 362.67 ± 0.87 kg/m3.

What about the mass density (518.24 K, 24992 kPa) of the same molecule?
The mass density was 395.78 ± 0.97 kg/m3.

And the mass density (518.24 K, 29993 kPa)?
The mass density was 419.86 ± 1.1 kg/m3.

What about the mass density (518.24 K, 34991 kPa) of the same molecule?
The mass density was 438.82 ± 1.2 kg/m3.

And the mass density (518.24 K, 39999 kPa)?
Its mass density is 454.51 ± 1.3 kg/m3.

And the mass density (523.23 K, 5019 kPa)?
Its mass density is 82.65 ± 0.36 kg/m3.

And the mass density (523.23 K, 9982 kPa)?
The mass density was 205.67 ± 0.57 kg/m3.

What about the mass density (523.23 K, 14990 kPa) of the same molecule?
Its mass density is 303.2 ± 0.77 kg/m3.

And the mass density (523.23 K, 19986 kPa)?
Its mass density is 356.38 ± 0.86 kg/m3.

What about the mass density (523.23 K, 24989 kPa) of the same molecule?
The mass density was 390.45 ± 0.97 kg/m3.

What about the mass density (523.23 K, 29998 kPa) of the same molecule?
Its mass density is 415.17 ± 1.1 kg/m3.

And the mass density (523.23 K, 39987 kPa)?
Its mass density is 450.55 ± 1.2 kg/m3.

What about the mass density (523.24 K, 34992 kPa) of the same molecule?
The mass density was 434.55 ± 1.2 kg/m3.

What about the Critical pressure (Liquid) of the same molecule?
Its Critical pressure is 4009.8 ± 11 kPa.

And the Critical temperature (Liquid)?
Its Critical temperature is 418.09 ± 0.11 K.

And the Critical density (Liquid, visual observation in a variable volume cell:FP)?
Its Critical density is 233.97 ± 4.7 kg/m3.
